From paper PMC11617668, “Developing Allosteric Inhibitors of SARS‐CoV‐2 RNA‐Dependent RNA Polymerase” (Chemmedchem, 2024)
Converted amounts (≈) assume the structure as drawn.

What was measured:
[1] = target: SARS‐CoV‐2 RdRp complex (nsp12, nsp7, nsp8) (Severe acute respiratory syndrome coronavirus 2, UniProt P0DTD1); assay: Fluorescence-based RdRp polymerase assay (SYBR Green I RNA extension); format: biochemical; conditions: for residual activity (RA) of the SARS‐CoV‐2 RdRp complex: 10 μM screening, AUC with compound / AUC of non-inhibited reaction x 100; for remaining activity at 10 µM: 50 min, read-out: residual activity (RA) of the SARS‐CoV‐2 RdRp complex
[2] = in vitro; conditions: human
Procedure: (§1) Briefly, two‐fold fold serial dilutions of compounds were added in triplicate in a 384‐well plate with 15,000 Calu‐3 cells in DMEM medium with 2 % FBS, 100 U of penicillin/ml and 100 μg of streptomycin/ml (all Merck). After 1 h incubation SARS‐CoV‐2 was added at multiplicity of infection 0.01. Following three days incubation at 37 °C in 5 % CO2 the cell viability was determined by addition of XTT solution (Sigma‐Aldrich) for 4 h and the absorbance was measured using EnVision plate reader (Perkin Elmer). Drug concentrations required to reduce viral cytopathic effect by 50 % (EC50) were calculated using nonlinear regression from plots of percentage cell viability versus log10 drug concentration using GraphPad Prism v.9.0.0 (GraphPad Software). Cytotoxicity was evaluated by incubating the same two‐fold serial dilutions of each compound with Calu‐3 cells as above but without virus. Following three days of incubation at 37 °C in 5 % CO2, the cell viability was determined by the addition of XTT solution as above. The compound concentrations resulting in a 50 % reduction of absorbance (CC50) were calculated from plots of the percentage of absorbance versus log10 drug concentration as above.

[3] = system: SARS‐CoV‐2; conditions: Severe acute respiratory syndrome coronavirus 2, Calu-3, 72 h
Procedure: as §1

[4] = Kinetic solubility test in enzymatic assay medium; format: physicochemical; conditions: aqueous HEPES buffer with 5 % DMSO, pH 8, aqueous with cosolvent or surfactant or cyclodextrin, kinetic from dmso stock
Procedure: Kinetic solubility tests were performed in the medium used for the enzymatic assay–aqueous solution of HEPES buffer with 5 % DMSO. […] This poor aqueous solubility represents a big hurdle in the development of potential antivirals and the improvement of solubility will be considered in further structural optimization efforts of this class of compounds.

[5] = system: SARS‐CoV‐2; conditions: cited from earlier work

Compound	remaining activity at 10 µM [1]	further results
1‐(3,5‐Dichlorophenyl)‐3‐(3‐(Trifluoromethyl)phenyl)guanidine Hydrochloride [Compound 54]	–	residual activity (RA) of the SARS‐CoV‐2 RdRp complex [1]: 100%
3,4‐Dichloro‐N‐(6‐(Trifluoromethyl)‐1H‐Benzo[d]imidazol‐2‐yl)benzamide [Compound 57]	–	residual activity (RA) of the SARS‐CoV‐2 RdRp complex [1]: 100%
CCCCNC(=O)Nc1cc(C(=O)OC)cc(C(=O)OC)c1 [Compound 5, Dimethyl 5‐(3‐Butylureido)isophthalate]	100%	–
COC(=O)c1cc(NC(=O)Nc2cccc(C#N)c2)cc(C(=O)OC)c1 [Compound 6, Dimethyl 5‐(3‐(3‐Cyanophenyl)ureido)isophthalate]	100%	–
COC(=O)c1cc(NC(=O)Nc2ccc(C#N)cc2)cc(C(=O)OC)c1 [Compound 7, Dimethyl 5‐(3‐(4‐Cyanophenyl)ureido)isophthalate]	100%	–
COC(=O)c1cc(NC(=O)Nc2ccc(S(N)(=O)=O)cc2)cc(C(=O)OC)c1 [Compound 8, Dimethyl 5‐(3‐(4‐Sulfamoylphenyl)ureido)isophthalate]	100%	–
COC(=O)c1cc(NC(=O)Nc2cccc(C(F)(F)F)c2)cc(C(=O)OC)c1 [Compound 9, Dimethyl 5‐(3‐(3‐Trifluoromethylphenyl)ureido)isophthalate]	70%	CC50 at 3 days [2]: 10.6 µM; EC50 [3]: > 10 µM
CCOC(=O)c1cccc(NC(=O)Nc2cc(C(=O)OC)cc(C(=O)OC)c2)c1 [Compound 10, Dimethyl 5‐(3‐(3‐(Ethoxycarbonyl)phenyl)ureido)isophthalate]	100%	–
COC(=O)c1cc(NC(=O)Nc2cc(C(F)(F)F)cc(C(F)(F)F)c2)cc(C(=O)OC)c1 [Compound 11, Dimethyl 5‐(3‐(3,5‐Bis(trifluoromethyl)phenyl)ureido)isophthalate]	65%	CC50 at 3 days [2]: 5.1 µM; EC50 [3]: > 5 µM
COC(=O)c1cc(NC(=O)Nc2cc([N+](=O)[O-])cc([N+](=O)[O-])c2)cc(C(=O)OC)c1 [Compound 12, Dimethyl 5‐(3‐(3,5‐Dinitophenyl)ureido)isophthalate]	100%	–
COC(=O)c1cc(NC(=O)Nc2cccc(C(=O)O)c2)cc(C(=O)OC)c1 [Compound 13, 3‐(3‐(3,5‐Bis(methoxycarbonyl)phenyl)ureido)benzoic Acid]	100%	–
COC(=O)c1cc(NC(=O)Nc2ccncc2)cc(C(=O)OC)c1 [Compound 14, Dimethyl 5‐(3‐(Pyridin‐4‐yl)ureido)isophthalate]	100%	–
COC(=O)c1cc(NC(=O)Nc2cccc([N+](=O)[O-])c2)cc(C(=O)OC)c1 [Compound 17, Dimethyl 5‐(3‐(3‐Nitrophenyl)ureido)isophthalate]	51%	–
O=C(Nc1cccc([N+](=O)[O-])c1)Nc1cccc([N+](=O)[O-])c1 [Compound 18, 1,3‐Bis(3‐nitrophenyl)urea]	100%	–
O=C(Nc1cccc([N+](=O)[O-])c1)Nc1cc(C(F)(F)F)cc(C(F)(F)F)c1 [Compound 19, 1‐(3,5‐Bis(trifluoromethyl)phenyl)‐3‐(3‐Nitrophenyl)urea]	62%	CC50 at 3 days [2]: 3.4 µM; EC50 [3]: > 3 µM
COC(=O)c1cc(NC(=O)Nc2cccc([N+](=O)[O-])c2)cc(C(=O)O)c1 [Compound 20, 3‐(Methoxycarbonyl)‐5‐(3‐(3‐Nitrophenyl)ureido)benzoic Acid]	100%	residual activity (RA) of the SARS‐CoV‐2 RdRp complex [1]: complete loss of activity
O=C(Nc1cc(C(=O)O)cc(C(=O)O)c1)Nc1cccc([N+](=O)[O-])c1 [Compound 21, 5‐(3‐(3‐Nitrophenyl)ureido)isophthalic acid]	100%	residual activity (RA) of the SARS‐CoV‐2 RdRp complex [1]: complete loss of activity
COC(=O)c1cc(NC(=O)Nc2ccc([N+](=O)[O-])cc2)cc(C(=O)OC)c1 [Compound 22]	50%	–
COC(=O)c1cc(NC(=O)Nc2ccccc2)cc(C(=O)OC)c1 [Compound 23]	100%	–
COC(=O)c1cc(NC(=O)Nc2ccc(C)cc2)cc(C(=O)OC)c1 [Compound 25]	100%	–
COC(=O)c1cc(NC(=O)Nc2cccc(F)c2)cc(C(=O)OC)c1 [Compound 26]	100%	–
COc1ccc(NC(=O)Nc2cc(C(=O)OC(C)C)cc(C(=O)OC(C)C)c2)c(OC)c1 [Compound 27]	100%	–
CC(=O)c1cccc(NC(=O)Nc2cc(C(=O)OC(C)C)cc(C(=O)OC(C)C)c2)c1 [Compound 28]	100%	–
O=C(Nc1cccc([N+](=O)[O-])c1)Nc1ccc(Cl)c(C(F)(F)F)c1 [Compound 29]	58%	–
O=C(Nc1cccc([N+](=O)[O-])c1)Nc1ccc2ccccc2c1 [Compound 30]	73%	–

Compound	remaining activity at 10 µM [1]	further results
O=C(Nc1cccc([N+](=O)[O-])c1)Nc1ccccc1Cc1ccccc1 [Compound 31]	78%	–
O=C(Nc1ccc(C(F)(F)F)cc1)Nc1cccc([N+](=O)[O-])c1 [Compound 32]	100%	–
O=C(Nc1ccc(Cl)cc1)Nc1cccc([N+](=O)[O-])c1 [Compound 33]	100%	–
O=C(Nc1ccc(C(=O)O)cc1)Nc1cccc([N+](=O)[O-])c1 [Compound 34]	100%	–
CCNS(=O)(=O)c1ccc(NC(=O)Nc2cccc([N+](=O)[O-])c2)cc1 [Compound 35]	100%	–
COC(=O)c1ccc(C(=O)OC)c(NC(=O)Nc2cccc([N+](=O)[O-])c2)c1 [Compound 36]	100%	–
CC(=O)Nc1cccc(NC(=O)Nc2cccc([N+](=O)[O-])c2)c1 [Compound 37]	100%	–
COc1cc(NC(=O)Nc2cccc([N+](=O)[O-])c2)cc(OC)c1 [Compound 38]	100%	–
O=C(Nc1cccc([N+](=O)[O-])c1)Nc1cnccn1 [Compound 39]	100%	–
O=C(Nc1cccc([N+](=O)[O-])c1)NC1CC1 [Compound 40]	100%	–
O=C(Nc1ccc([N+](=O)[O-])cc1)Nc1cc(Cl)cc(Cl)c1 [Compound 41]	40%	–
O=C(Nc1ccc([N+](=O)[O-])cc1)Nc1ccccc1Cc1ccccc1 [Compound 42]	63%	–
O=[N+]([O-])c1cccc(NC(=S)Nc2ccc(Cl)c(C(F)(F)F)c2)c1 [Compound 43]	77%	–
O=[N+]([O-])c1cccc(NC(=S)Nc2ccccc2Cc2ccccc2)c1 [Compound 44]	100%	–
O=C(Nc1cc(Cl)cc(Cl)c1)Nc1cccc(C(F)(F)F)c1 [Compound 47, 1‐(3,5‐Dichlorophenyl)‐3‐(3‐(Trifluoromethyl)phenyl)urea]	45%	CC50 at 3 days [2]: 0.49 µM; EC50 [3]: > 0.49 µM; solubility kinetic [4]: < 2 µM
O=C(Cc1ccc([N+](=O)[O-])cc1)Nc1cc(Cl)cc(Cl)c1 [Compound 49, N‐(3,5‐Dichlorophenyl)‐2‐(4‐Nitrophenyl)acetamide]	100%	–
O=C(Cc1cc(Cl)cc(Cl)c1)Nc1ccc([N+](=O)[O-])cc1 [Compound 52, 2‐(3,5‐Dichlorophenyl)‐N‐(4‐Nitrophenyl)acetamide]	100%	–
O=C(Nc1cc(Cl)cc(Cl)c1)C(=O)Nc1cccc(C(F)(F)F)c1 [Compound 53, N ^1‐(3,5‐Dichlorophenyl)‐N ^2‐(3‐(Trifluoromethyl)phenyl)oxalamide]	100%	–
FC(F)(F)c1ccc2nc(-c3nc4cc(Cl)c(Cl)cc4[nH]3)[nH]c2c1 [Compound 55, 5,6‐Dichloro‐6′‐(Trifluoromethyl)‐1 H ,1′H‐2,2′‐Bibenzo[d]imidazole]	42%	CC50 at 3 days [2]: 2.1 µM; EC50 [3]: > 2.1 µM; solubility kinetic [4]: 2.9 ± 0.6 µM (≈ 1.08 µg/mL)
FC(F)(F)c1cccc(Nc2nc3cc(Cl)c(Cl)cc3[nH]2)c1 [Compound 56, 5,6‐Dichloro‐N‐(3‐(Trifluoromethyl)phenyl)‐1H‐Benzo[d]imidazol‐2‐Amine]	60%	CC50 at 3 days [2]: 43 µM; EC50 [3]: > 43 µM; solubility kinetic [4]: 7 ± 0.1 µM (≈ 2.42 µg/mL)
O=C(Nc1cc(Cl)cc(Cl)c1)c1nc2ccc(C(F)(F)F)cc2[nH]1 [Compound 58, N‐(3,5‐Dichlorophenyl)‐6‐(Trifluoromethyl)‐1H‐Benzo[d]imidazole‐2‐Carboxamide]	100%	–
O=C(Nc1ccccc1)Nc1ccc(-c2ccc(C(=O)[C@@H]3CCC[C@H]3C(=O)O)cc2)cc1 [Compound A922500, A922500, reference compound]	100%	activity in cell assays against the virus [5]: active
COc1cc(NC(=O)Nc2cccc(CNC(=O)O[C@H]3CCOC3)c2)ccc1-c1cnco1 [merimepodib, reference compound]	100%	viral replication ([5]; in combination with remdesivir): completely suppress viral replication
CNC(=O)c1cc(Oc2ccc(NC(=O)Nc3ccc(Cl)c(C(F)(F)F)c3)c(F)c2)ccn1 [regorafenib, reference compound]	76%	activity in cell assays against the virus [5]: active
CNC(=O)c1cc(Oc2ccc(NC(=O)Nc3ccc(Cl)c(C(F)(F)F)c3)cc2)ccn1 [sorafenib]	–	cell infection [5]: strongly inhibited cell infection
